Numbered stars: 1 amine (or outer) side, 2 acyl side, 3 side chain; on linkers, the order of the positions; unused ones are H or OH. Bridge positions count the residues as written; N and C are the ends. Peptide text beside a SMILES is read from it. I, II: the chains in the order shown. * marks the point of attachment. NH(CH2)11CH3 = CCCCCCCCCCCCN*; CH2CH2 = C(C[*:2])[*:1]
How the values were obtained:
Assay type in all cases: cell-based
CHO-K1 cells [1] = assay: Transfection of luciferase plasmid into CHO-K1 cells, luciferase reporter gene assay; conditions: for Luciferase activity, mean count at most effective (peak) concentration: 5 ug luciferase plasmid, about 48 h post transfection; for Concentration of peak transfection efficiency (most effective concentration): luciferase plasmid
Experimental: CHO-K1 cells (ATCC: CRL-9618) were seeded into T25-culture flasks (Corning-Costar Buckinghamshire, UK), at 7×10^5 cells per flask, 24 hours prior to transfection. The CHO-K1 cells were seeded in 5 ml MEM alpha medium with ribonucleosides and deoxyribonucleosides and supplemented with 1× L-glutamine and 10% v/v foetal bovine serum (complete medium). The cells were grown at 37° C. in 5% CO2 in a humidified atmosphere.
For transfection, 5 ug DNA (luciferase control plasmid) was incubated with the gemini compounds in water (final volume 400 μl). The peptide-based gemini compounds were made up at 1 mg ml^−1 in tissue culture grade water and then diluted to the appropriate concentration to a total volume of 200 ul. Following a 30 minute room temperature incubation, 2.6 ml OPTI-MEM® medium was added and the solution placed on the cells. Following an overnight incubation at 37° C., the transfection solution was replaced with complete medium and the cells incubated at 37° C. 24 hours post transfection the cells were detached from the flask and seeded into 96-well plates at a density of 0.5×10^5 cells per well and incubated for a further 24 hours at 37° C. Luciferase reporter gene assays were performed according to the manufacturers instructions (Roche Diagnostics, Mannheim, Germany) approximately 48 hours post transfection. The plates were left for a 15 minutes adaption period in the dark before counting for 60 seconds in a TopCount NXT counter (Canberra Packard). An average of eight wells were counted per transfection.
Control transfections were set up with no DNA, an anionic gemini compound and the commercially available reagent LipofectAmine PLUS™.

HEK293 cells = assay: Transfection of luciferase plasmid into HEK293 cells, luciferase activity assay; conditions: for Efficiency in facilitating transfection of the luciferase plasmid: at concentrations above 150 ug/ml; for Luciferase activity, mean count at most effective (peak) concentration: luciferase control plasmid 6 ug, mean of 4 independent counts; for Concentration of peak transfection efficiency (most effective concentration): luciferase plasmid
Experimental: All tissue culture reagents were obtained from Life Technologies Inc. HEK 293 cells were seeded at 2-3×10^5 cells per well in Nunc six-well culture plates, 24 hours prior to transfection. The cells were seeded in 2 mls Dulbeccos Modified Eagle medium containing Earles salts and supplemented with 10% v/v foetal bovine serum (=complete medium). The cells were grown at 37° C. in 5% CO2 in a humidified atmosphere. 6 ug DNA (“luciferase control plasmid” from Promega Corp.) were dissolved in 100 ul serum free medium (OPTI-MEMO). The peptide-based gemini compounds were made up at 1 mg/ml in tissue culture grade water and then diluted in OPTI-MEM® to the appropriate concentration to a final volume of 100 ul. The DNA and gemini solutions were mixed (to a total volume of 200 ul; final concentrations of 5, 25, 50, 100, 150, 200, 250 and 300 ug/ml) and left at room temperature for 15 minutes. The DNA/gemini mix was placed onto the cells in each well and left in contact for 18-20 hours. The cells were then washed twice with phophate buffered saline prior to 1 ml of fresh complete medium being added. Cells were incubated for a further 24 hours prior to lysis and luciferase activity assayed.
All luciferase activity assays were performed using the Canberra Packard (Berkshire, UK) Luclite kit according to the manufacturer's instructions with the exception that the cells in each well were resuspended in 1 ml lysis buffer and 100 ul aliquots mixed with 100 ul of the luciferase substrate. The reaction mix was left for a 15 minutes adaptation period in the dark before counting for 5 minutes in a Top Count scintillation counter. Luciferase activity is measured as counts per second (CPS) from the scintillation counter. Four independent counts were taken per well.
Control transfections were set up with no DNA, CaPO4, an anionic gemini compound (1) and the commercially available lipofection reagents LipofectAmine™ and Lipotaxi™ at the manufacturers recommended concentrations (10, 25, 50, 75, 125 ug/ml and 175, 250, 325, 400 and 500 ug/ml respectively).

CHO-K1 cells [2] = assay: Transfection of luciferase plasmid into CHO-K1 cells with gemini compounds in combination with supplements (DOPE, PLUS)
Experimental: The transfection ability of the gemini compounds could be further enhanced by the addition of a neutral carrier, for example, dioleyl phosphatidylethanolamine (DOPE) (Farhood, H., et al (1985) Biochim. Biophys. Acta 1235 289) or a complexing reagent, for example, PLUS compound (Life Technologies Inc.). […] Transfection mediated by compound 55 with DOPE in a 2:1 ratio and the addition of 11.6 ul of PLUS compound lead to a mean count of 6.5×10^5 cps representing a 12-fold increase of luciferase activity in comparison to compound 55 alone. Incubation of the PLUS compound with the DNA and combination with compound 55 alone also lead to a 4-fold increase.

[3] = compound 55 with DOPE 2:1 plus 11.6 ul PLUS compound

| Molecule | Efficiency in facilitating transfection of the luciferase plasmid (CHO-K1 cells [1]) | Luciferase activity, mean count at most effective (peak) concentration (CHO-K1 cells [1]) | Concentration of peak transfection efficiency (most effective concentration) (CHO-K1 cells [1]) | Efficiency in facilitating transfection of the luciferase plasmid (HEK293 cells) | Luciferase activity, mean count at most effective (peak) concentration (HEK293 cells) | Concentration of peak transfection efficiency (most effective concentration) (HEK293 cells) | Increase of luciferase activity (CHO-K1 cells [2]; PLUS compound incubated with the DNA, combined with compound 55 alone (no DOPE)) | Increase of luciferase activity (CHO-K1 cells [2]; compound 55 and DOPE at 2:1 ratio) | Increase of luciferase activity in comparison to compound 55 alone (CHO-K1 cells [2]; [3]) | Luciferase activity, mean count (CHO-K1 cells [2]; [3]) | Luciferase activity count, control transfection (HEK293 cells; CaPO4 transfection) |
| --- | --- | --- | --- | --- | --- | --- | --- | --- | --- | --- | --- |
| CCCCCCCCCCCCNC(=O)C(CO)NC(=O)C(CSCCSCC(NC(=O)C(CCCCNC(=O)C(N)CCCCN)NC(=O)C(N)CCCCN)C(=O)NC(CO)C(=O)NCCCCCCCCCCCC)NC(=O)C(CCCCNC(=O)C(N)CCCCN)NC(=O)C(N)CCCCN.Cl.Cl.Cl.Cl.Cl.Cl.Cl.Cl (centres unmarked) [Compound 56] (I: H-KK(Lys)CS-{NH(CH2)11CH3} / II: H-KK(Lys)CS-{NH(CH2)11CH3}; linker I:3-II:3 via CH2CH2; configuration not given here) | very efficient agents | about 1.9×10^5 cps | 40 µM | very efficient agents | about 50,000 cps | 200 µg/mL | – | – | – | – | – |
| CCCCCCCCCCCCCNC(=O)C(CO)NC(=O)C(CSCCSCC(NC(=O)C(N)CCCCNC(=O)C(N)CCCCN)C(=O)NC(CO)C(=O)NCCCCCCCCCCCC)NC(=O)C(N)CCCCNC(=O)C(N)CCCCN.Cl.Cl.Cl.Cl (centres unmarked) [Compound 55] | very efficient agents | about 2.4×10^5 cps | 30 µM | very efficient agents | about 45,000 cps | 300 µg/mL | 4 fold | 9 fold | 12 fold | 6.5×10^5 cps | – |
| CaPO4 [reference compound] | – | – | – | – | – | – | – | – | – | – | about 2,000 cps |

From patent US20040043939A1, “Peptide-based gemini compounds” (SmithKline Beecham p.l.c., priority 1997, published 2004)
